Source: article PMC8815882, “Screening the pandemic response box identified benzimidazole carbamates, Olorofim and ravuconazole as promising drug candidates for the treatment of eumycetoma” (PLoS Neglected Tropical Diseases, 2022)
Like-named read-outs stand apart in the source and are kept apart here.

Test system: M. mycetomatis genome strain MM55
Test: CLSI M38-A2 based in vitro susceptibility screening (XTT or resazurin), growth at fixed concentration
Assay type: cell-based, Madurella mycetomatis
Details: Madurella mycetomatis; for Percent fungal survival at 100 µM: read-out: Percentage survival at 100um, 100 uM A (second replicate column)
[1] = replicate A, read-out: Percentage survival at 25um, 25 um A
[2] = replicate B, read-out: Percentage survival at 25um, 25 uM B
[3] = replicate C, read-out: Percentage survival at 25um, 25 uM C
[4] = mean of three replicates, read-out: Percentage survival at 25um, 25 uM mean
[5] = mean of three replicates, read-out: Percentage survival at 100um, 100 uM mean
[6] = replicate 1, read-out: Percentage survival at 100um, 100 uM A (first replicate column)
[7] = replicate 3, read-out: Percentage survival at 100um, 100 uM A (third replicate column)
[8] = mean, read-out: Percentage survival at 25um, 25 uM mean
[9] = mean, read-out: Percentage survival at 100um, 100 uM mean
[10] = replicate (first column), read-out: Percentage survival at 100um, 100 uM A
[11] = replicate (second column), read-out: Percentage survival at 100um, 100 uM A
[12] = replicate (third column), read-out: Percentage survival at 100um, 100 uM A
[13] = first replicate column, read-out: Percentage survival at 100um, 100 uM A
[14] = second replicate column, read-out: Percentage survival at 100um, 100 uM A
[15] = third replicate column, read-out: Percentage survival at 100um, 100 uM A

Compound | activity at 25 µM [1] [%] | activity at 25 µM [2] [%] | activity at 25 µM [3] [%] | activity at 25 µM [4] [%] | activity at 100 µM [5] [%] | activity at 100 µM [6] [%] | Percent fungal survival at 100 µM (replicate 2) [%] | activity at 100 µM [7] [%] | activity at 100 µM [13] [%] | activity at 100 µM [14] [%] | activity at 100 µM [15] [%] | further results
Oc1ccc2[nH]c(-c3ccccc3)nc2c1 [MMV292173] | 82.5 | 95.1 | 92 | – | – | – | – | – | – | – | – | activity at 25 µM (mean of replicates, read-out: Percentage survival at 25um, 25 uM mean): 89.9%; activity at 100 µM (mean of replicates, read-out: Percentage survival at 100um, 100 uM mean): 93.2%; activity at 100 µM (replicate 1, read-out: Percentage survival at 100um, 100 uM A): 100%; activity at 100 µM (replicate 2, read-out: Percentage survival at 100um, 100 uM A): 85.4%; activity at 100 µM (replicate 3, read-out: Percentage survival at 100um, 100 uM A): 94.1%
COc1ccc(CNC(=O)C(NS(=O)(=O)c2ccc3nc(C)sc3c2)C(C)C)cc1 (centres unmarked) [MMV303733] | 74.6 | 73.6 | 127 | 91.8 | 75.7 | 82.2 | 77.4 | 67.5 | – | – | – | –
COc1ccc(NC(=O)c2cc3ccccn3n2)cc1 [MMV374187] | 94.6 | 115 | 90.7 | 100 | 65.8 | 52 | 60.6 | 84.9 | – | – | – | –
Oc1cc(-c2cccc3ccccc23)[nH]n1 [MMV422940] | 89.3 | 79.4 | 70.9 | – | – | – | – | – | – | – | – | activity at 25 µM [8]: 79.9%; activity at 100 µM [9]: 81.4%; activity at 100 µM [10]: 88.2%; activity at 100 µM [11]: 73.6%; activity at 100 µM [12]: 82.2%
O=C(O)C(Cc1c[nH]c2ccccc12)N1C(=O)c2ccccc2C1=O (centres unmarked) [MMV452821] | 99.3 | 91 | 52.5 | 80.9 | 96.8 | 102 | 95.7 | 92.9 | – | – | – | –
NC(=O)c1ccccc1NC(=O)c1ccc(C(=O)Nc2ccccc2C(N)=O)cc1 [MMV508427] | – | – | – | – | – | – | – | – | – | – | – | activity at 25 µM (mean of three, M. mycetomatis MM55, read-out: Percentage survival at 25um, 25 uM mean): 86.7%; activity at 25 µM (replicate A, M. mycetomatis MM55, read-out: Percentage survival at 25um, 25 um A): 92%; activity at 25 µM (replicate B, M. mycetomatis MM55, read-out: Percentage survival at 25um, 25 uM B): 87.7%; activity at 25 µM (replicate C, M. mycetomatis MM55, read-out: Percentage survival at 25um, 25 uM C): 80.3%; activity at 100 µM (mean of three, M. mycetomatis MM55, read-out: Percentage survival at 100um, 100 uM mean): 95.7%; activity at 100 µM (replicate 1, M. mycetomatis MM55, read-out: Percentage survival at 100um, 100 uM A (first replicate column)): 98.6%; Percent fungal survival at 100 µM (replicate 2, M. mycetomatis MM55): 92.7%; activity at 100 µM (replicate 3, M. mycetomatis MM55, read-out: Percentage survival at 100um, 100 uM A (third replicate column)): 95.8%
O=C(c1cc(O)nc2ccccc12)N1CCN(c2ccccc2)CC1 [MMV596723] | 85.3 | 92.8 | 66.3 | 81.5 | 79.5 | – | – | – | 83.7 | 80.5 | 74.4 | –
COc1ccc(-n2cnc3cc(NCc4ccco4)ccc32)cc1 [MMV617332] | 70.4 | 107 | 7.47 | 61.8 | 7.71 | – | – | – | 18.3 | 3.66 | 1.23 | –
CN(Cc1ccc(C(C)(C)C)cc1)Cc1cccc2ccccc12 [MMV637104] | 58.2 | -0.523 | 64.9 | – | – | – | – | – | – | – | – | activity at 25 µM [8]: 40.9%; activity at 100 µM [9]: 61.2%; activity at 100 µM [10]: 61.4%; activity at 100 µM [11]: 65.7%; activity at 100 µM [12]: 56.6%
OC[C@@H]1CC[C@H](n2cnc3c(O)ncnc32)O1 [MMV637306] | 101 | 91 | 83.2 | 91.8 | 87.3 | – | – | – | 90.3 | 80.5 | 91.2 | –
